Assay results published in ChEMBL document CHEMBL3046161, “Synthesis of potential antitubercular and antimicrobial s-triazine-based scaffolds via Suzuki cross-coupling reaction” (2013).
≈ marks a conversion by molar mass, not a printed value.

Key:
Type in all cases: functional
Salmonella typhi [1] = test: Antibacterial activity against Salmonella enterica subsp. enterica serovar Typhi MTCC 733 assessed as growth inhibition at 3.12 to 50 ug/mL after 24 hr by agar disk diffusion method
Klebsiella pneumoniae [2] = test: Antibacterial activity against Klebsiella pneumoniae MTCC 109 assessed as growth inhibition at 3.12 to 50 ug/mL after 24 hr by agar disk diffusion method
Klebsiella pneumoniae [3] = test: Antibacterial activity against Klebsiella pneumoniae MTCC 109 assessed as growth inhibition after 24 hr by agar streak dilution method; details: MTCC 109, 24 h
Salmonella typhi [4] = test: Antibacterial activity against Salmonella enterica subsp. enterica serovar Typhi MTCC 733 assessed as growth inhibition after 24 hr by agar streak dilution method; details: MTCC 733, 24 h
Pseudomonas aeruginosa [5] = test: Antibacterial activity against Pseudomonas aeruginosa MTCC 741 assessed as growth inhibition after 24 hr by agar streak dilution method; details: MTCC 741, 24 h
Escherichia coli [6] = test: Antibacterial activity against Escherichia coli MTCC 739 assessed as growth inhibition after 24 hr by agar streak dilution method; details: MTCC 739, 24 h
Bacillus cereus [7] = test: Antibacterial activity against Bacillus cereus MTCC 430 assessed as growth inhibition after 24 hr by agar streak dilution method; details: MTCC 430, 24 h
Staphylococcus aureus [8] = test: Antibacterial activity against Staphylococcus aureus MTCC 96 assessed as growth inhibition after 24 hr by agar streak dilution method; details: MTCC 96, 24 h
[9] = test system: Mycobacterium tuberculosis; test: Antimycobacterial activity against Mycobacterium tuberculosis H37Rv assessed as growth inhibition at MIC after 12 to 28 days by Lowenstein and Jensen agar dilution method
[10] = test system: Mycobacterium tuberculosis; test: Antimycobacterial activity against Mycobacterium tuberculosis H37Rv assessed as growth inhibition after 12 to 28 days by Lowenstein and Jensen agar dilution method
[11] = test system: Mycobacterium tuberculosis; test: Antimycobacterial activity against Mycobacterium tuberculosis H37Rv assessed as growth inhibition at MIC measured within 10 days by BACTEC MGIT method
[12] = test system: Mycobacterium tuberculosis; test: Antimycobacterial activity against Mycobacterium tuberculosis H37Rv assessed as growth inhibition measured within 10 days by BACTEC MGIT method; details: 240 h
Candida albicans [13] = test: Antifungal activity against Candida albicans MTCC 183 assessed as growth inhibition at 3.12 to 50 ug/mL after 24 hr by agar disk diffusion method
Aspergillus clavatus [14] = test: Antifungal activity against Aspergillus clavatus MTCC 1323 assessed as growth inhibition at 3.12 to 50 ug/mL after 24 hr by agar disk diffusion method
Aspergillus fumigatus [15] = test: Antifungal activity against Aspergillus fumigatus MTCC 343 assessed as growth inhibition at 3.12 to 50 ug/mL after 24 hr by agar disk diffusion method
Aspergillus niger [16] = test: Antifungal activity against Aspergillus niger MTCC 282 assessed as growth inhibition at 3.12 to 50 ug/mL after 24 hr by agar disk diffusion method
Candida albicans [17] = test: Antifungal activity against Candida albicans MTCC 183 assessed as growth inhibition after 48 hr by agar streak dilution method; details: MTCC 183, 48 h
Aspergillus clavatus [18] = test: Antifungal activity against Aspergillus clavatus MTCC 1323 assessed as growth inhibition after 48 hr by agar streak dilution method; details: MTCC 1323, 48 h
Aspergillus fumigatus [19] = test: Antifungal activity against Aspergillus fumigatus MTCC 343 assessed as growth inhibition after 48 hr by agar streak dilution method; details: MTCC 343, 48 h
Aspergillus niger [20] = test: Antifungal activity against Aspergillus niger MTCC 282 assessed as growth inhibition after 48 hr by agar streak dilution method; details: MTCC 282, 48 h
Shigella flexneri [21] = test: Antibacterial activity against Shigella flexneri MTCC 1457 assessed as growth inhibition at 3.12 to 50 ug/mL after 24 hr by agar disk diffusion method
Proteus vulgaris [22] = test: Antibacterial activity against Proteus vulgaris MTCC 1771 assessed as growth inhibition at 3.12 to 50 ug/mL after 24 hr by agar disk diffusion method
Pseudomonas aeruginosa [23] = test: Antibacterial activity against Pseudomonas aeruginosa MTCC 741 assessed as growth inhibition at 3.12 to 50 ug/mL after 24 hr by agar disk diffusion method
Escherichia coli [24] = test: Antibacterial activity against Escherichia coli MTCC 739 assessed as growth inhibition at 3.12 to 50 ug/mL after 24 hr by agar disk diffusion method
Bacillus cereus [25] = test: Antibacterial activity against Bacillus cereus MTCC 430 assessed as growth inhibition at 3.12 to 50 ug/mL after 24 hr by agar disk diffusion method
Staphylococcus aureus [26] = test: Antibacterial activity against Staphylococcus aureus MTCC 96 assessed as growth inhibition at 3.12 to 50 ug/mL after 24 hr by agar disk diffusion method
Shigella flexneri [27] = test: Antibacterial activity against Shigella flexneri MTCC 1457 assessed as growth inhibition after 24 hr by agar streak dilution method; details: MTCC 1457, 24 h
Proteus vulgaris [28] = test: Antibacterial activity against Proteus vulgaris MTCC 1771 assessed as growth inhibition after 24 hr by agar streak dilution method; details: MTCC 1771, 24 h

| SMILES | inhibition zone (IZ) (Salmonella typhi [1]) | inhibition zone (IZ) (Klebsiella pneumoniae [2]) | MIC (Klebsiella pneumoniae [3]) | MIC (Salmonella typhi [4]) | MIC (Pseudomonas aeruginosa [5]) | MIC (Escherichia coli [6]) | MIC (Bacillus cereus [7]) | MIC (Staphylococcus aureus [8]) | growth inhibition (GI) [9] | MIC [10] | growth inhibition (GI) [11] | MIC [12] | inhibition zone (IZ) (Candida albicans [13]) | inhibition zone (IZ) (Aspergillus clavatus [14]) | inhibition zone (IZ) (Aspergillus fumigatus [15]) | inhibition zone (IZ) (Aspergillus niger [16]) | MIC (Candida albicans [17]) | MIC (Aspergillus clavatus [18]) | MIC (Aspergillus fumigatus [19]) | MIC (Aspergillus niger [20]) | also measured |
| --- | --- | --- | --- | --- | --- | --- | --- | --- | --- | --- | --- | --- | --- | --- | --- | --- | --- | --- | --- | --- | --- |
| COc1ccc(NC(=O)CNc2ccc(-c3nc(N4CC(C)CC(C)C4)nc(N4CC(C)CC(C)C4)n3)cc2)cc1 (stereo unspecified) | 20 mm | <10 mm | 50 µg/mL (≈ 89.6 µM) | 25 µg/mL (≈ 44.8 µM) | 50 µg/mL (≈ 89.6 µM) | 50 µg/mL (≈ 89.6 µM) | 25 µg/mL (≈ 44.8 µM) | 50 µg/mL (≈ 89.6 µM) | 99% | 6.25 µg/mL (≈ 11.2 µM) | 99% | 6.25 µg/mL (≈ 11.2 µM) | 21 mm | <10 mm | <10 mm | 14 mm | 25 µg/mL (≈ 44.8 µM) | > 50 µg/mL | > 50 µg/mL | 50 µg/mL (≈ 89.6 µM) | inhibition zone (IZ) (Shigella flexneri [21]): 19 mm; inhibition zone (IZ) (Proteus vulgaris [22]): 22 mm; inhibition zone (IZ) (Pseudomonas aeruginosa [23]): 22 mm; inhibition zone (IZ) (Escherichia coli [24]): 19 mm; inhibition zone (IZ) (Bacillus cereus [25]): 23 mm; inhibition zone (IZ) (Staphylococcus aureus [26]): 16 mm; MIC (Shigella flexneri [27]): 50 µg/mL (≈ 89.6 µM); MIC (Proteus vulgaris [28]): 25 µg/mL (≈ 44.8 µM) |
| CC1CC(C)CN(c2nc(-c3ccc(NCC(=O)Nc4nc5ccc(F)cc5s4)cc3)nc(N3CC(C)CC(C)C3)n2)C1 (stereo unspecified) | 23 mm | 25 mm | 25 µg/mL (≈ 41.5 µM) | 12.5 µg/mL (≈ 20.7 µM) | 25 µg/mL (≈ 41.5 µM) | 25 µg/mL (≈ 41.5 µM) | 3.12 µg/mL (≈ 5.18 µM) | 3.12 µg/mL (≈ 5.18 µM) | 99% | 3.12 µg/mL (≈ 5.18 µM) | 99% | 6.25 µg/mL (≈ 10.4 µM) | 23 mm | 25 mm | 25 mm | 22 mm | 50 µg/mL (≈ 82.9 µM) | 50 µg/mL (≈ 82.9 µM) | 25 µg/mL (≈ 41.5 µM) | 12.5 µg/mL (≈ 20.7 µM) | inhibition zone (IZ) (Shigella flexneri [21]): 26 mm; inhibition zone (IZ) (Proteus vulgaris [22]): 25 mm; inhibition zone (IZ) (Pseudomonas aeruginosa [23]): 25 mm; inhibition zone (IZ) (Escherichia coli [24]): 20 mm; inhibition zone (IZ) (Bacillus cereus [25]): 28 mm; inhibition zone (IZ) (Staphylococcus aureus [26]): 25 mm; MIC (Shigella flexneri [27]): 6.25 µg/mL (≈ 10.4 µM); MIC (Proteus vulgaris [28]): 25 µg/mL (≈ 41.5 µM) |
